# Laboratory results published in patent publication US6410516B1.
# Tests used:
# 70Z/3 cells = settings: 10 μg/mo cycloheximide; cited from earlier work
# NF-KB in 70Z/3 cells = assay: TPA stimulation, subcellular fractions of 70Z/3 cells (mobility shift assay); assay type: cell-based, mouse; settings: TPA-stimulated cells; fractions treated with formamide and DOC; densitometric scanning
# Experimental: Nuclear extracts, cytosolic and postnuclear membrane fractions were analyzed at equal amounts of protein in an electrophoretic mobility shift assay, described in Example 1, followed by fluorography.
# To examine whether the form of NF-kB detected after in vitro activation in the cytosolic fraction could quantitatively account for the NF-kB found in nuclear extracts after TPA stimulation of cells, subcellular fractions of 70Z/3 cells were reinvestigated in mobility shift assays after treatment with formamide and DOC using equal cell-equivalents of subcellular fractions. Equal cell-equivalents of nuclear extracts (N) and cytosolic (C) and post-nuclear membrane fractions (P) from control (Co) and TPA-stimulated cells (TPA) were left untreated (lanes 1-6 and 13-18) or subjected to a formamide/desoxycholate treatment (Fa+DOC; lanes 7-12 and 19-24; for conditions see FIG. 31, lane 11). This treatment was preferred over the DOC/NP-40 chase treatment because it gave a higher resolution of bands in mobility shift assays. DNA-binding reactions were performed in the presence of 3.2 ug poly(d[I-C]) using 4.4 ug of protein from nuclear extracts, 8.8 ug of protein from cytosolic fractions or 2.2 ug of protein from postnuclear membrane fractions (all in 4 ul buffer D(+)). Fluorograms of native gels are shown. […]
# AP-1 in HeLa cells = assay: TPA stimulation, AP-1 DNA-binding activity in HeLa subcellular fractions; assay type: cell-based, human
# From the text: FIG. 28 represents analysis of subcellular fractions for DNA-binding activity of the TPA-inducible transcription factor AP-1. Equal cell-equivalents of nuclear extracts (N) and cytosolic fractions (C) from 70Z/3 and HeLa cells were used in mobility shift assays. AP-1 specific DNA-binding activity was detected using an end-labeled EcoRI-HindIII fragment from the yeast HIS 4 promoter containing three binding sites for GCN4 recognized by mammalian AP-1. The three protein-DNA complexes seen on shorter exposures of the fluorogram are indicated by filled arrowheads and the position of unbound DNA-fragment by an open arrowhead.
# endogenous κ gene = assay: Northern blot, endogenous κ gene expression in 70Z/3 cells; assay type: cell-based, mouse; settings: PMA 50 ng/ml, LPS 15 μg/ml or Sendai virus, 0 to 20 hr
# Experimental: (§1) FIG. 42C presents results of Northern blot analyses of 70Z/3 cells treated with various inducers.
# (§2) RNA preparation and Northern blot analysis were carried out as previously described by Zinn et al., Cell, 34, 865-879 (1983).
# endogenous β-IFN mRNA = assay: Northern blot, endogenous β-IFN mRNA in 70Z/3 cells; assay type: cell-based, mouse; settings: PMA 50 ng/ml, LPS 15 μg/ml or Sendai virus, 0 to 20 hr
# Experimental: as §1, §2
# HeLa cells = settings: anisomycin at 10; cited from earlier work
# NF-κB = assay: GTP stimulation of NF-κB complex formation in the binding assay; assay type: biochemical; settings: GTP 3 mM added to the binding assay; virus-induced extracts
smiles,measurement,setting,value
C[C@@H]1C[C@@H]([C@H](O)CC2CC(=O)NC(=O)C2)C(=O)[C@@H](C)C1 [cycloheximide],inhibition of protein synthesis,70Z/3 cells,greater than 95%
"CCCCCCCCCCCCCC(=O)O[C@@H]1[C@@H](C)[C@@]2(O)[C@@H](C=C(CO)C[C@]3(O)C(=O)C(C)=C[C@@H]23)[C@@H]2C(C)(C)[C@]12OC(C)=O [PMA, phorbol 12-myristate-13-acetate]",kB-specific DNA-binding activity found in nuclear extracts,NF-KB in 70Z/3 cells,80%
same,AP-1 DNA-binding activity in nuclear extracts after TPA-stimulation,AP-1 in HeLa cells,did not show an increase
same,endogenous κ gene expression,endogenous κ gene,activation of the endogenous κ gene
same,endogenous β-IFN mRNA,endogenous β-IFN mRNA,not
COc1ccc(C[C@H]2NC[C@H](O)[C@H]2OC(C)=O)cc1 [anisomycin],inhibition of protein synthesis,HeLa cells,approximately 99%
Nc1nc2c(ncn2[C@@H]2O[C@H](COP(=O)(O)OP(=O)(O)OP(=O)(O)O)[C@@H](O)[C@H]2O)c(=O)[nH]1 [GTP],NF-κB complex formation,NF-κB,stimulated
